Data from US8703965B2, “Preparation of saturated imidazolinium salts and related compounds” (Materia, Inc., priority 2007, dated 2014).

Experiment: Solubility of the salts in different solvents at different temperature (basis for the separation)
Description: The principle to separate the two salts is the solubility in different solvents at different temperature.

Compound	Solubility in acetone (Room Temperature)	Solubility in hexane (Room Temperature)	Solubility in toluene (100 C.)	Solubility in toluene (Room Temperature)	Solubility in water (Room Temperature)
Br.CCN(C(C)C)C(C)C [i-Pr2NEt—HBr]	soluble	not soluble	soluble	not soluble	very soluble
Cc1cc(C)c(N2C=[N+](c3c(C)cc(C)cc3C)CC2)c(C)c1.[Br-] [sIMes-HBr, 1,3-Dimesitylimidazolinium Bromide]	slightly soluble	not soluble		not soluble	slightly soluble
